{"source": "the RepoRT retention time repository (doi:10.1016/j.scitotenv.2015.08.078)", "data": [{"test": "RP, Waters ACQUITY UPLC BEH C18, 100 × 2.1 mm, 1.7 µm, 0.3 mL/min, estimated dead time 0.73 min; A: water + 0.1% formic acid, pH 3; B: methanol + 0.1% formic acid, pH 3; gradient (min/%B) 0/10 14/90 16/90 18/10", "conditions": "stereoisomer not certain", "units": {"LC retention time": "min"}, "values": [{"smiles": "CCCCNC(=O)n1c(NC(=O)OC)nc2ccccc21", "note": "[Benomyl]", "LC retention time": 11.6}, {"smiles": "CN1CCC23c4c5ccc(O)c4OC2C(O)C=CC3C1C5", "note": "(stereo not drawn) [Morphine]", "LC retention time": 2.86}, {"smiles": "Cc1cccc(C)c1N(C(=O)CCl)C1CCOC1=O", "note": "(stereo not drawn) [Ofurace]", "LC retention time": 7.69}, {"smiles": "COP(=S)(OC)Oc1ccc([N+](=O)[O-])c(C)c1", "note": "[Fenitrothion]", "LC retention time": 10.5}, {"smiles": "CON=C(C(=O)NC1C(=O)N2C(C(=O)O)=C(COC(C)=O)CSC12)c1csc(N)n1", "note": "(stereo not drawn) [Cefotaxime]", "LC retention time": 4.41}, {"smiles": "CCNc1nc(NCC)[nH]c(=O)n1", "note": "[2-hydroxysimazine]", "LC retention time": 3.33}, {"smiles": "CCCC(=NOCC)C1C(=O)CC(CC(C)SCC)CC1=O", "note": "(stereo not drawn) [Sethoxydim]", "LC retention time": 11.8}, {"smiles": "CCOP(=O)(NC(C)C)Oc1ccc(SC)c(C)c1", "note": "(stereo not drawn) [Fenamiphos]", "LC retention time": 11.3}]}]}
